Data on 21 compounds can be found in patent US11566028B2, “Bicyclic heterocycles as FGFR inhibitors” (Incyte Corporation, priority 2019, dated 2023).

What is called IC50 is the concentration needed to halve the response being measured. A lower IC50 goes with inhibition by little substance.

Format in all cases: biochemical
The target of assay [1] is wild-type un-phosphorylated FGFR3 protein (Homo sapiens (Human), UniProt P22607). Kind of assay: FGFR Enzymatic Assay (FRET peptide phosphorylation), FGFR3. The note with it: pre-incubated for 4 hours.
For the next assay, the target named is FGFR1 (Homo sapiens (Human), UniProt P11362). Kind of assay: FGFR Enzymatic Assay (FRET peptide phosphorylation), FGFR1. The following applies: pre-incubated for 4 hours.
The target in the next assay is FGFR2 (Homo sapiens (Human), UniProt P21802). Kind of assay: FGFR Enzymatic Assay (FRET peptide phosphorylation), FGFR2.
Another assay deals with FGFR4 (Homo sapiens (Human), UniProt P22455). Kind of assay: FGFR Enzymatic Assay (FRET peptide phosphorylation), FGFR4.

Read-outs that look alike come from different tables or passages of the source.

Sequence of FGFR4 (P22455 22-802): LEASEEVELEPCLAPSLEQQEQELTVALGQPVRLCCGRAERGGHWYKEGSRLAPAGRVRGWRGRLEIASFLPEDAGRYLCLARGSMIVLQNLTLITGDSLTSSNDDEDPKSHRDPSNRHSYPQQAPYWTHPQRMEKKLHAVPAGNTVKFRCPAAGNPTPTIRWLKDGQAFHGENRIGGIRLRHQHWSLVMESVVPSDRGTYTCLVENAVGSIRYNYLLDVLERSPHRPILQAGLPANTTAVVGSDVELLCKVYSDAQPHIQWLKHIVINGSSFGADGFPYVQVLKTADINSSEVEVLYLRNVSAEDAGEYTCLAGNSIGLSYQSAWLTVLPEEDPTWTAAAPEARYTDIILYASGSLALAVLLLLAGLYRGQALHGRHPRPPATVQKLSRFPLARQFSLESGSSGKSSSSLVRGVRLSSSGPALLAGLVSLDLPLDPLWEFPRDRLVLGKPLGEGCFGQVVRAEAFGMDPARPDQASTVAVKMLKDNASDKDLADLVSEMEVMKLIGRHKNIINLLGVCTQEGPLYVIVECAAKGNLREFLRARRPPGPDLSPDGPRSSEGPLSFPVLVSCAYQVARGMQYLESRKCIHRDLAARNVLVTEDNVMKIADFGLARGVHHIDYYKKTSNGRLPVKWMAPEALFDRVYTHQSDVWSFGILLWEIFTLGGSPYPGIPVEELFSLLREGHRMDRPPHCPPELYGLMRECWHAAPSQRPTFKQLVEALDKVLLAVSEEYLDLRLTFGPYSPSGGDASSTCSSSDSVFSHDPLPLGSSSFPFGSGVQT
Sequence of wild-type un-phosphorylated FGFR3 protein (P22607 23-806): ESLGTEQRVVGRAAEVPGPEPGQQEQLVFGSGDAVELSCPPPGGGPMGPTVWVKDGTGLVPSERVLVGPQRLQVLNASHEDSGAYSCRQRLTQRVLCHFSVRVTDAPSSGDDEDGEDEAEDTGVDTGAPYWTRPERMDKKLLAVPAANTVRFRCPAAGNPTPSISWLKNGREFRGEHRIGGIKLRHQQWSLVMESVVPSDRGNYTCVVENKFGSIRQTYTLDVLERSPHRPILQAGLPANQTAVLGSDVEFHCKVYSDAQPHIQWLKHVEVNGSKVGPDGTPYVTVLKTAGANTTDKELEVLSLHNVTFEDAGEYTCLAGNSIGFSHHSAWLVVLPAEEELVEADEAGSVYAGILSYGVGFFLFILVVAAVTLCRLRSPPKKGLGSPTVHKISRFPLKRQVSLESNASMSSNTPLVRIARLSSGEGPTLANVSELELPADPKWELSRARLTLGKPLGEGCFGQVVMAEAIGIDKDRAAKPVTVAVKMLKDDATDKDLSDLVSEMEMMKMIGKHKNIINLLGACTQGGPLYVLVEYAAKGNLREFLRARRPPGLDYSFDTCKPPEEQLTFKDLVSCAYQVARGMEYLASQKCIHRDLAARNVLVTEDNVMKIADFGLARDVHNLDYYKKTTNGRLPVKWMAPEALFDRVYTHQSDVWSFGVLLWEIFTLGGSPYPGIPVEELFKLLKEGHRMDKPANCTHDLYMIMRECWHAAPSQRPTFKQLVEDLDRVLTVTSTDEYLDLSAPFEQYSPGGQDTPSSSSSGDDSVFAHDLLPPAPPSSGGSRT
Sequence of FGFR2 (P21802 22-821): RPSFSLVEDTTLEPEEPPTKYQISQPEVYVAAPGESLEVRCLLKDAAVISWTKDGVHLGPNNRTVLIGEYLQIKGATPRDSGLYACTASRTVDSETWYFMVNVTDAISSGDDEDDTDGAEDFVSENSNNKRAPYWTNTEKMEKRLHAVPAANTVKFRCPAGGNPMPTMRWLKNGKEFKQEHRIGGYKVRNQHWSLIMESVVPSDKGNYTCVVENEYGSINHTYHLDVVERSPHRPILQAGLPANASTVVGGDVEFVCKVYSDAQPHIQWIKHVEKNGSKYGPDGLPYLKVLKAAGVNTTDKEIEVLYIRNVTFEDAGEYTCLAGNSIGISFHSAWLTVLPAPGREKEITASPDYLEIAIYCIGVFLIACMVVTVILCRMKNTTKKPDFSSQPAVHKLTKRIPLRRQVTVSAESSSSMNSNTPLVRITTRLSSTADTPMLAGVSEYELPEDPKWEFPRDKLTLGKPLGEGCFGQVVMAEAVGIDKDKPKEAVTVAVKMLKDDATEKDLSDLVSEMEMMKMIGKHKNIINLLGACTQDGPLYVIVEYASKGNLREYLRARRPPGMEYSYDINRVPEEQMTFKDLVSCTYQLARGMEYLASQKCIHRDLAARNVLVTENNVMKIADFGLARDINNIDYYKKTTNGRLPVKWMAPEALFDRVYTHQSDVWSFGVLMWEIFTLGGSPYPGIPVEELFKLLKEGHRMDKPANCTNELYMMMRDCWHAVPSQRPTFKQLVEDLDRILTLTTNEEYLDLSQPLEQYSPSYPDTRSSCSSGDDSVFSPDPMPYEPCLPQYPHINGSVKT
Sequence of FGFR1 (P11362 22-822): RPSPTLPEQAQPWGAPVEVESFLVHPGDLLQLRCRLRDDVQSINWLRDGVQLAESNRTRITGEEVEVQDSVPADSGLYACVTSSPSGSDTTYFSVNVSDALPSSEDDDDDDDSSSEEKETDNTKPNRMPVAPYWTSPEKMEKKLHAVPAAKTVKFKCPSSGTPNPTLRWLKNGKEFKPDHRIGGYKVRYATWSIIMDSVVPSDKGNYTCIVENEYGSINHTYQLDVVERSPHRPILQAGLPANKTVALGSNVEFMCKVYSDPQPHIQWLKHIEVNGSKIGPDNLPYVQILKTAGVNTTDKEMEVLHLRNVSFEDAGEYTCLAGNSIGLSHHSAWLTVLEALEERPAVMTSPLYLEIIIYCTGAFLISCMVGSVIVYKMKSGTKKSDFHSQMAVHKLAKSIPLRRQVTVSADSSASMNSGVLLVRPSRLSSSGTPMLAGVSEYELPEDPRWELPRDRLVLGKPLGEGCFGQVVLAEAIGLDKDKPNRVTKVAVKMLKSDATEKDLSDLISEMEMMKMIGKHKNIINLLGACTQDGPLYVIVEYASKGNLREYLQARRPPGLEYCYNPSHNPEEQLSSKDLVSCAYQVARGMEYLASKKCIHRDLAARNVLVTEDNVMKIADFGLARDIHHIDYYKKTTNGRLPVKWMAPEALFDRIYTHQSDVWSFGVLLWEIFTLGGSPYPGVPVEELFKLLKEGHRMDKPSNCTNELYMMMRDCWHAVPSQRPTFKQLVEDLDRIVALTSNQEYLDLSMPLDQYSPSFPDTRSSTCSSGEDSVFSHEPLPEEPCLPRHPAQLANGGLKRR

Turning to `CNC(=O)c1cc(F)c(F)c(-c2cnn3cc(-c4cnc(C)o4)c(N[C@H]4CCOC4)nc23)c1` [Example 58, (S)-3,4-Difluoro-N-methyl-5-(6-(2-methyloxazol-5-y1)-5-((tetrahydrofuran-3-yl)amino)pyrazolo[1,5-a]pyrimidin-3-yl)benzamide], the IC50 was below 10 nM in assay [1], below 10 nM at FGFR1, below 10 nM at FGFR2 and 30 to 200 nM against FGFR4.
As for `CNC(=O)c1cncc(-c2cnn3cc(-c4cnn(C)n4)c(N[C@H]4CCOC4)nc23)c1` [Example 60, (S)—N-Methyl-5-(6-(2-methyl-2H-1,2,3-triazol-4-yl)-5-((tetrahydrofuran-3-yl)amino)pyrazolo[1,5-a]pyrimidin-3-yl)nicotinamide], the half-inhibitory concentration (IC50) is below 10 nM in assay [1], 30 to 200 nM at FGFR1, below 10 nM against FGFR2 (pre-incubated for 4 hours) and at least 200 nM against FGFR4 (pre-incubated for 4 hours).
Take `CCS(=O)(=O)c1cc(F)c(F)c(-c2cnn3cc(-c4cnn(C)c4)c(O[C@H]4CCOC4)nc23)c1` [Example 46, (S)-3-(5-(Ethylsulfonyl)-2,3-difluorophenyl)-6-(1-methyl-1H-pyrazol-4-yl)-5-((tetrahydrofuran-3-yl)oxy)pyrazolo[1,5-a]pyrimidine]: the IC50 on FGFR1 was 10 to 30 nM; on FGFR2 (pre-incubated for 4 hours), below 10 nM; at FGFR4 (pre-incubated for 4 hours) it was at least 200 nM.
For `CNC(=O)c1cncc(-c2cnn3cc(-c4cnn(C)c4)c(OC4CCOC4)nc23)c1` (racemic) [Example 3, N-Methyl-5-(6-(1-methyl-1H-pyrazol-4-yl)-5-((tetrahydrofuran-3-yl)oxy)pyrazolo[1,5-a]pyrimidin-3-yl)nicotinamide], in that order: 30 to 200 nM, below 10 nM and at least 200 nM.
Take `CCn1cc(-c2cn3ncc(-c4cc(C(=O)NC)cc(F)c4F)c3nc2N[C@H]2CCOC2)cn1` [Example 53, (S)-3-(6-(1-Ethy1-1H-pyrazol-4-y1)-5-((tetrahydrofuran-3-yl)amino)pyrazolo[1,5-a]pyrimidin-3-y1)-4,5-difluoro-N-methylbenzamide]: the IC50 in assay [1] is below 10 nM; against FGFR1, 10 to 30 nM; against FGFR2, below 10 nM; on FGFR4, above 200 nM.
Consider `CCn1ccc(-c2cn3ncc(-c4cc(C(=O)NC)cc(C)c4F)c3nc2N[C@H]2CCOC2)n1` [Example 43, (S)-3-(6-(1-Ethy1-1H-pyrazol-3-y1)-5-((tetrahydrofuran-3-yl)amino)pyrazolo[1,5-a]pyrimidin-3-y1)-4-fluoro-N,5-dimethylbenzamide], for which the IC50 in assay [1] is below 10 nM; on FGFR1, 10 to 30 nM; at FGFR2, below 10 nM; on FGFR4 it was 30 to 200 nM.
As to `Cn1cc(-c2cn3ncc(-c4cccc5[nH]ncc45)c3nc2O[C@H]2CCOC2)cn1` [Example 33, (S)-3-(1H-Indazol-4-yl)-6-(1-methyl-1H-pyrazol-4-yl)-5-((tetrahydrofuran-3-yl)oxy)pyrazolo[1,5-a]pyrimidine], the IC50 was below 10 nM in assay [1], 10 to 30 nM against FGFR1, below 10 nM on FGFR2 (pre-incubated for 4 hours) and 30 to 200 nM on FGFR4 (pre-incubated for 4 hours).
On to `[2H]C([2H])([2H])NC(=O)c1cc(-c2cnn3cc(-c4ccc(CN5C[C@H]6C[C@@H]5CO6)nc4)c(O[C@H]4CCOC4)nc23)c(F)c(C(F)F)c1` [Example 66, 3-(6-(6-(((1R,4R)-2-Oxa-5-azabicyclo[2.2.1]heptan-5-yl)methyl)pyridin-3-yl)-5-(((S)-tetrahydrofuran-3-yl)oxy)pyrazolo[1,5-a]pyrimidin-3-yl)-5-(difluoromethyl)-4-fluoro-N-(methyl-d3)benzamide], for which the IC50 in assay [1] is below 10 nM; against FGFR1, 30 to 200 nM; against FGFR2 (pre-incubated for 4 hours), below 10 nM; on FGFR4 (pre-incubated for 4 hours), 30 to 200 nM.
As to `[2H]C([2H])([2H])NC(=O)c1cc(C)c(F)c(-c2cnn3cc(-c4cnn([C@@H]5CCN(C)C[C@H]5F)c4)c(O[C@H]4CCOC4)nc23)c1` [Example 64, 4-Fluoro-3-(6-(1-((3R,4R)-3-fluoro-1-methylpiperidin-4-yl)-1H-pyrazol-4-yl)-5-(((S)-tetrahydrofuran-3-yl)oxy)pyrazolo[1,5-a]pyrimidin-3-yl)-5-methyl-N-(methyl-d3)benzamide], the IC50 is below 10 nM in assay [1], below 10 nM against FGFR1, below 10 nM against FGFR2 (pre-incubated for 4 hours) and 10 to 30 nM against FGFR4 (pre-incubated for 4 hours).
As for `CNC(=O)c1cc(C)c(F)c(-c2cnn3cc(-c4cnn(C5CN(C)C5)c4)c(N[C@H]4CCOC4)nc23)c1` [Example 35, (S)-4-Fluoro-N,3-dimethyl-5-(6-(1-(1-methylazetidin-3-yl)-1H-pyrazol-4-yl)-5-((tetrahydrofuran-3-yl)amino)pyrazolo[1,5-a]pyrimidin-3-yl)benzamide], the IC50 in assay [1] is below 10 nM; against FGFR1 it was 10 to 30 nM; against FGFR2 (pre-incubated for 4 hours) it was below 10 nM; against FGFR4 (pre-incubated for 4 hours), at least 200 nM.
As to `CCS(=O)(=O)c1cc(F)c(F)c(-c2cnn3cc(-c4cnn(C)c4)c(N[C@H]4CCOC4)nc23)c1` [Example 45, (S)-3-(5-(Ethylsulfonyl)-2,3-difluorophenyl)-6-(1-methyl-1H-pyrazol-4-yl)-N-(tetrahydrofuran-3-yl)pyrazolo[1,5-a]pyrimidin-5-amine], the figures for the IC50 at FGFR1 and on FGFR4 (pre-incubated for 4 hours) were 10 to 30 nM and at least 200 nM, respectively.
On to `CNC(=O)c1cc(C)c(F)c(-c2cnn3cc(-c4cnn(C5CCOC5)c4)c(N[C@H]4CCOC4)nc23)c1` (stereo partly drawn) [Example 41, 4-Fluoro-N,3-dimethyl-5-(6-(1-(tetrahydrofuran-3-yl)-1H-pyrazol-4-y1)-5-(((S)-tetrahydrofuran-3-yl)amino)pyrazolo[1,5-a]pyrimidin-3-yl)benzamide], for which the IC50 in assay [1] is below 10 nM; at FGFR1 it was 30 to 200 nM; on FGFR2, below 10 nM; on FGFR4 it was 30 to 200 nM.
Regarding `[2H]C([2H])([2H])NC(=O)c1cncc(-c2cnn3cc(-c4cnn(C(C)C)c4)c(O[C@H]4CCOC4)nc23)c1` [Example 63, (S)-5-(6-(1-Isopropyl-1H-pyrazol-4-yl)-5-((tetrahydrofuran-3-yl)oxy)pyrazolo[1,5-a]pyrimidin-3-yl)-N-(methyl-d3)nicotinamide], the IC50 at FGFR4 (pre-incubated for 4 hours) was in the range of 30 to 200 nM.
In the case of `CNC(=O)c1cc(F)c(F)c(-c2cnn3cc(-c4cnn(CCN5CCOCC5)c4)c(O[C@H]4CCOC4)nc23)c1` [Example 14, (S)-3,4-Difluoro-N-methy1-5-(6-(1-(2-morpholinoethyl)-1H-pyrazol-4-y1)-5-((tetrahydrofuran-3-yl)oxy)pyrazolo[1,5-a]pyrimidin-3-yl)benzamide], the IC50 (in assay [1]; against FGFR1; against FGFR2) was below 10 nM throughout.
`CNC(=O)c1ccc(F)c(-c2cnn3cc(-c4cnn(C)c4)c(OC4CCOC4)nc23)c1` (racemic) [Example 2, 4-Fluoro-N-methyl-3-(6-(1-methyl-1H-pyrazol-4-yl)-5-((tetrahydrofuran-3-yl)oxy)pyrazolo[1,5-a]pyrimidin-3-yl)benzamide]: the IC50 in assay [1] is below 10 nM; against FGFR1 it was 30 to 200 nM; against FGFR2 (pre-incubated for 4 hours), below 10 nM.
Take `CNC(=O)c1cc(C)c(F)c(-c2cnn3cc(-c4cnc(C5(F)CCN(C)CC5)o4)c(N[C@H]4CCOC4)nc23)c1` [Example 69, (S)-4-Fluoro-3-(6-(2-(4-fluoro-1-methylpiperidin-4-yl)oxazol-5-yl)-5-((tetrahydrofuran-3-yl)amino)pyrazolo[1,5-a]pyrimidin-3-yl)-N,5-dimethylbenzamide]: the IC50 in assay [1] is below 10 nM; on FGFR1 it was 30 to 200 nM; against FGFR2 (pre-incubated for 4 hours) it was below 10 nM.
`CNC(=O)c1cncc(-c2cnn3cc(-c4cnn(C5CCC5)c4)c(O[C@H]4CCOC4)nc23)c1` [Example 22, (S)-5-(6-(1-Cyclobutyl-1H-pyrazol-4-yl)-5-((tetrahydrofuran-3-yl)oxy)pyrazolo[1,5-a]pyrimidin-3-yl)-N-methylnicotinamide]: the results for the IC50 (in assay [1]; against FGFR1; at FGFR2 (pre-incubated for 4 hours)) were below 10 nM, 10 to 30 nM and below 10 nM, respectively.
Consider `CC(C)NC(=O)c1cncc(-c2cnn3cc(-c4ccn(C)n4)c(N[C@H]4CCOC4)nc23)c1` [Example 62, (S)—N-Isopropyl-5-(6-(1-methyl-1H-pyrazol-3-yl)-5-((tetrahydrofuran-3-yl)amino)pyrazolo[1,5-a]pyrimidin-3-yl)nicotinamide], for which the IC50 on FGFR1 was 30 to 200 nM; at FGFR2 (pre-incubated for 4 hours) it was 10 to 30 nM; against FGFR4 (pre-incubated for 4 hours) it was at least 200 nM.
As for `CNC(=O)c1cc(C)c(F)c(-c2cnn3cc(-c4cnn(CC(=O)N(C)C)c4)c(N[C@H]4CCOC4)nc23)c1` [Example 39, (S)-3-(6-(1-(2-(Dimethylamino)-2-oxoethyl)-1H-pyrazol-4-y1)-5-((tetrahydrofuran-3-yl)amino)pyrazolo[1,5-a]pyrimidin-3-y1)-4-fluoro-N,5-dimethylbenzamide], the results for the IC50 (in assay [1]; against FGFR1; on FGFR2) were below 10 nM, 10 to 30 nM and below 10 nM, respectively.
Consider `CNC(=O)c1cc(-c2cnn3cc(-c4cnn(C5CCC5)c4)c(O[C@H]4CCOC4)nc23)cc(S(C)(=O)=O)c1` [Example 32, (S)-3-(6-(1-Cyclobutyl-1H-pyrazol-4-yl)-5-((tetrahydrofuran-3-yl)oxy)pyrazolo[1,5-a]pyrimidin-3-yl)-N-methyl-5-(methylsulfonyl)benzamide], for which the concentration for half-maximal inhibition (IC50) in assay [1] was at least 200 nM; at FGFR1, at least 200 nM; against FGFR2 (pre-incubated for 4 hours), 30 to 200 nM.
For `CNC(=O)c1cc(C)c(F)c(-c2cnn3cc(-c4cnn(C)c4)c(O[C@H]4CCOC4)nc23)c1` [Example 5, (S)-4-Fluoro-N,3-dimethyl-5-(6-(1-methyl-1H-pyrazol-4-yl)-5-((tetrahydrofuran-3-yl)oxy)pyrazolo[1,5-a]pyrimidin-3-yl)benzamide], the IC50 (in assay [1]; on FGFR1; against FGFR2 (pre-incubated for 4 hours)) was below 10 nM throughout.
